According to US20220380371A1, “MLL1 INHIBITORS AND ANTI-CANCER AGENTS” (NOVARTIS AG, priority 2019, published 2022):
Read-outs that look alike come from different tables or passages of the source.

Experiments:
[1] = biological target: wild type MLL1 five-member complex (MLL1-5C) (Homo sapiens, UniProt Q03164); test: MLL1 Flashplate Assay; format: biochemical; settings: read-out: MLL1 flash plate
Experimental: MLL1 Flashplate Assay To assess the compound potency in MLL1 Flashplate assay, compounds were serially diluted 3-fold in DMSO to obtain a total of twelve concentrations. Then the test compounds at each concentration (250 nL of each) were transferred by Mosquito into Corning #3675 384-well plate. Solutions (15 μL) of 4.2 nM wild type MLL1 five-member complex (MLL1-5C) in the assay buffer (20 mM Tris-HCl, pH 8.0, 0.01% Tween 20, 1 mM DTT, 0.01% BSA) were added to the wells. A 10 μL solution of 2.5 μM of the peptide substrate H3K4me0 (histone H3[1-21]-Biotin) and 1.25 μM ^3H-SAM in the reaction buffer was then added to initiate each reaction. The final components in the reaction solution include 2.5 nM MLL1-5C, 0.5 μM ^3H-SAM, and 1 μM H3K4me0 with varying concentration of the compounds. A positive control consisted of 2.5 nM MLL1-5C, 0.5 μM ^3H-SAM, and 1 μM substrate in the absence of the test compound, and a negative control consisted of 0.5 μM ^3H-SAM, and 1 μM substrate only. Each reaction was incubated at rt for 90 min, then stopped by addition of 5 μL per of quench solution (0.5 mM SAM in assay buffer). 25 μL of each reaction solution was transferred to FlashPlate streptavidin 384-well microplate (PerkinElmer). After at least 1 h incubation at rt, the wells were washed three times with 0.1% Tween-20 in dH2O using the BioTek plate washer. The plates were then read in MicroBeta (PerkinElmer). The radioactive readouts were then normalized based on the values coming from the positive and negative controls to give percent enzyme activities. The data were then fit to a dose response equation using the program Helios to get the IC50 values of the test compounds.

[2] = biological target: wild type MLL1 four-member complex (MLL1-4C) (Homo sapiens, UniProt Q03164); test: MLL1 LC-MS Assay; format: biochemical
In short: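 Compound pre-incubated 20 min with MLL1-4C and SAM, then H3[1-21]-biotin (H3K4me0) substrate added; final 30 nM enzyme, 2.5 μM SAM, 10 μM peptide in Tris pH 8.0 with MgCl2, DTT, Tween 20, BSA. After 120 min at rt, TFA-quenched SAH quantified by LC-MS/MS with d4-SAH; IC50 from dose-response fit.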

H3K4me3 in MV4-11 cells = test: MV4-11 H3K4me3 Cellular ELISA Assay; format: cell-based; settings: Homo sapiens, MV4-11, 48 h
In short: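 MV4-11 cells were treated for 48 h with 12-point 1:3 compound dilutions (from 10 mM stock), then histones were acid-extracted with 0.5M HCl and neutralized. H3K4me3 and total H3 were measured by HRP chemiluminescent ELISA, and inhibition versus DMSO after H3 normalization was curve-fitted for IC50.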

MV4-11 cells = test: MV4-11 6-Day Cell Growth CTG (CellTiter-Glo) Assay; format: cell-based; settings: Homo sapiens, MV4-11, 144 h, MV4-11 cell growth CellTiter-Glo, 6 days
In short: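 MV4-11 AML cells (RPMI 1640, 10% FBS) seeded at 300 cells/well and exposed for 6 days at 37 °C to a 12-point, 1:3 compound series starting at 50 μM final. Viable cells read by CellTiter-Glo luminescence; percent inhibition versus DMSO-only wells fitted to dose-response curves for IC50.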

Compound | IC50 [1] [µM] | IC50 ([2]; read-out: LCMS) [µM] | IC50 (H3K4me3 in MV4-11 cells) [µM] | IC50 (MV4-11 cells) [µM] | IC50 ([2]; read-out: MLL1 LCMS) [µM]
Nc1ncnc2c1ncn2Cc1c(N2CC[C@](N)(C(=O)N3CCn4nncc4C3)C2)ccc(F)c1C(F)(F)F [Example 128] | > 0.1 | > 0.1 | < 1.9 | > 3 | –
Nc1ncnc2c1ncn2Cc1c(Br)c(F)c2c(c1N1CC[C@](N)(C(=O)NC3CC3)C1)OCC2 [Example 20] | < 0.06 | < 0.05 | < 1.9 | < 2 | –
CCc1c(Cl)ccc(N2CC[C@](N)(C(=O)NCCS(=O)(=O)c3ccccc3)C2)c1Cn1cnc2c(N)ncnc21 [Example 145] | < 0.06 | – | < 1.9 | < 2 | < 0.05
C[C@H]1CN(C(=O)[C@@]2(N)CCN(c3ccc(F)c(C(F)(F)F)c3Cn3cnc4c(N)ncnc43)C2)CCO1 [Example 131] | < 0.06 | 0.05 to 0.1 | < 1.9 | < 2 | –
N#CCN1CCN(C(=O)[C@@]2(N)CCN(c3ccc(F)c(C(F)(F)F)c3Cn3cnc4c(N)ncnc43)C2)CC1 [Example 136] | < 0.06 | 0.05 to 0.1 | < 1.9 | < 2 | –
Nc1ncnc2c1ncn2Cc1c(N2CC[C@](N)(C(=O)NC3CC3)C2)ccc(Cl)c1Cl [Example 144] | < 0.06 | – | < 1.9 | < 2 | < 0.05
Nc1ncnc2c1ncn2Cc1c(N2CC[C@](N)(C(=O)NC3CC3)C2)ccc2c1OC(F)(F)O2 [Example 15] | < 0.06 | < 0.05 | < 1.9 | < 2 | –
Nc1ncnc2c1ncn2Cc1c(-c2cccc3c2CCCC3)cc(Cl)cc1N1CC[C@](N)(C(=O)NC2CC2)C1 [Example 150] | < 0.06 | – | 1.9 to 3 | < 2 | < 0.05
COC[C@@]1(N)CCN(c2cc(Cl)cc(Br)c2Cn2cnc3c(N)ncnc32)C1 [Example 32, (R)-9-(2-(3-amino-3-(methoxymethyl)pyrrolidin-1-yl)-6-bromo-4-chlorobenzyl)-9H-purin-6-amine] | 0.06 to 0.1 | > 0.1 | > 3 | > 3 | –
Nc1ncnc2c1ncn2Cc1c(N2CC[C@](N)(C(=O)NC3CC3)C2)ccc(F)c1CN1CCOCC1 [Example 65] | > 0.1 | < 0.05 | < 1.9 | < 2 | –

Continued, values first:

IC50 [1] [µM] | IC50 ([2]; read-out: LCMS) [µM] | IC50 (H3K4me3 in MV4-11 cells) [µM] | IC50 (MV4-11 cells) [µM] | IC50 ([2]; read-out: MLL1 LCMS) [µM] | Compound
< 0.06 | 0.05 to 0.1 | < 1.9 | 2 to 3 | – | Nc1ncnc2c1ncn2Cc1c(Br)cc(Cl)cc1N1CC[C@](N)(CO)C1 [Example 19]
< 0.06 | – | < 1.9 | < 2 | < 0.05 | CCc1c(Cl)ccc(N2CC[C@](N)(C(=O)NCCS(=O)(=O)CC)C2)c1Cn1cnc2c(N)ncnc21 [Example 149]
< 0.06 | < 0.05 | < 1.9 | < 2 | – | CCc1cc(Cl)cc(N2CC[C@](N)(C(=O)NC3CC3)C2)c1Cn1cnc2c(N)ncnc21 [Example 2, (R)-3-amino-1-(2-((6-amino-9H-purin-9-yl)methyl)-5-chloro-3-ethylphenyl)-N-cyclopropylpyrrolidine-3-carboxamide]
< 0.06 | 0.05 to 0.1 | < 1.9 | > 3 | – | Nc1ncnc2c1ncn2Cc1c(Br)c(Cl)c(Cl)c(Cl)c1N1CCC(N)(C(=O)NC2CC2)C1 (centres unmarked) [Example 44]
